Activity calls are given as the source filed them. Cut-off read from the data, not from the text of the source: active = AC50 below about 11 µM.
Tested on: not listed separately
Experiment: TNFa signaling inhibitors in B cell line, dose response, counter-screen (AID 1259334);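 note: cells stimulated with TNFa after compound preincubation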
Details: B cell line, TNFa signaling counterscreen reporter; at 0.0015 µM; stronger effect = lower value

Compound | max activity
Cc1ccc(-c2nn3c(C)nnc3c3ccccc23)cc1S(=O)(=O)NCc1ccccc1 | 9.48% (inactive)

Same assay, conditions: B cell line, TNFa signaling counterscreen reporter; at 0.0046 µM; stronger effect = lower value

Compound | max activity
C[C@@H]1CN([C@@H](C)CO)C(=O)Cc2cc(NC(=O)Cc3cn(C)c4ccccc34)ccc2O[C@H]1CN(C)Cc1ccc(C(F)(F)F)cc1 | 14% (inactive)

Same assay, conditions: B cell line, TNFa signaling counterscreen reporter; at 0.0135 µM; stronger effect = lower value

Compound | max activity
O=C1C=CC(=O)C2=C1C1c3ccccc3C2c2ccccc21 | 13% (inactive)
COc1ccc2c3c(n(C)c2c1)[C@H](CO)N(C(=O)Nc1ccc(F)cc1)CC31CCN(C(=O)Nc2ccc(F)cc2F)CC1 | -5.85% (inactive)
COc1cccc(S(=O)(=O)N(C)C[C@@H]2OCc3ccccc3-c3c(n(C)c4ccccc34)C(=O)N([C@H](C)CO)C[C@H]2C)c1 | 14.6% (inactive)
COc1ccc(S(=O)(=O)N(C)C[C@@H]2Oc3ccc(NC(=O)Nc4ccc(C(F)(F)F)cc4)cc3C(=O)N([C@@H](C)CO)C[C@@H]2C)cc1 | 7.2% (inactive)

Same assay, conditions: B cell line, TNFa signaling counterscreen reporter; at 0.042 µM; stronger effect = lower value

Compound | max activity
CC(=O)Nc1ccc(S(=O)(=O)c2ccc(N)cc2)cc1 | 6.36% (inactive)

Same assay, conditions: B cell line, TNFa signaling counterscreen reporter; at 0.12 µM; stronger effect = lower value

Compound | max activity
Cc1cc(C)c2c(c1)SC1=NC(c3ccccc3)(C(F)(F)F)NC(=O)N12 (stereo unspecified) | -5.9% (inactive)
COc1cccc(NC(=O)N2CC(=O)N3[C@H](CO)[C@@H](c4ccc(C#CCC5CCCC5)cc4)[C@H]3C2)c1 | 16.8% (inactive)
Cc1ccc(C2(C)NC(=O)N(CC(=O)Nc3cccnc3Cl)C2=O)cc1 (stereo unspecified) | -17.9% (inactive)

Same assay, conditions: B cell line, TNFa signaling counterscreen reporter; at 1.1 µM; stronger effect = lower value

Compound | max activity
COc1ccccc1C(=O)Nc1ccc2c(c1)C(=O)N(C)[C@H]1CC[C@H](CC(=O)Nc3cccc(C(C)C)c3)O[C@@H]1CO2 | 37.4% (inactive)
Cc1noc(C)c1NC(=O)N(C)C[C@@H]1OCCCC[C@@H](C)Oc2ccc(NC(=O)Nc3ccc(C(F)(F)F)cc3)cc2C(=O)N([C@H](C)CO)C[C@H]1C | 17% (inactive)
CCCNC(=O)N1[C@H](CO)[C@H](c2ccc(-c3cccc(OC)c3)cc2)[C@@H]1C#N | 18% (inactive)

Same assay, conditions: B cell line, TNFa signaling counterscreen reporter; at 3.5 µM; stronger effect = lower value

Compound | max activity
N#Cc1ccc(-c2ccc3c(c2)[C@H]2[C@H](CCN2C(=O)C2CC2)[C@@H](CO)N3)cc1 | -16.6% (inactive)
Cc1ccc(-c2ccccc2[C@H]2[C@@H](C#N)N(c3ncc(-c4ccccc4)s3)[C@@H]2CO)cc1 | 7.84% (inactive)
Cc1ccc(C(CC(=O)NCc2ccco2)c2ccc(OC(C)C)cc2)cc1 (stereo unspecified) | 36% (inactive)
Cc1ccc(OCCn2cnc3c(N)ncnc32)cc1 | -11.4% (inactive)
Cc1noc(C)c1S(=O)(=O)Nc1ccc2c(c1)C(=O)N([C@@H](C)CO)C[C@H](C)[C@@H](CN(C)C(=O)Nc1cccc3ccccc13)OCCCC[C@H](C)O2 | -10.7% (inactive)

Same assay, conditions: B cell line, TNFa signaling counterscreen reporter; at 10 µM; stronger effect = lower value

Compound | max activity
O=C(c1ccc(-c2ccc([N+](=O)[O-])cc2)o1)N1CCCC(C(F)(F)F)C1 (stereo unspecified) | 46.5% (inactive)
O=C(NCCC(c1ccccc1)c1ccco1)c1cccs1 (stereo unspecified) | 46.8% (inactive)
CCCNC(=O)N1[C@H](C#N)[C@@H](c2ccc(-c3cccc(OC)c3)cc2)[C@H]1CO | 11.7% (inactive)
CCc1cnc(N2[C@H](C#N)[C@H](c3ccc(C#CCC4CCCC4)cc3)[C@@H]2CO)s1 | 32.9% (inactive)
CCCNC(=O)N1[C@H](CO)[C@H](c2ccc(/C=C/c3ccccc3)cc2)[C@@H]1C#N | 45.4% (inactive)
N#C[C@@H]1[C@@H](c2ccccc2)[C@H](CO)N1C(=O)CN1CCOCC1 | 46.9% (inactive)
Cc1ccccc1S(=O)(=O)N1C[C@@H]2N[C@H](C1)C2c1ccc(-c2cccc(C#N)c2)cc1 (stereo partly specified) | 22.9% (inactive)

Tested on: B cell line, TNFa signaling counterscreen reporter
Experiment: as above
Details: not given

Compound | AC50
COCC(C)n1c(C)cc(C(=O)COC(=O)c2cccn2C)c1C (stereo unspecified) | 760 nM
COc1ccc(Cl)cc1NC(=O)Nc1cc(C)nc2ccccc12 | > 20000 nM (inactive)
c1ccc2c(c1)OCC(C1=NCCN1)O2 (stereo unspecified) | > 20000 nM (inactive)
CC1OC(CC(=O)O)CC2=C1C(=O)c1c(O)cccc1C2=O (stereo unspecified) | 86.9 nM
CC(=O)OCC12CC(OC(=O)CC(C)C)C(C)=CC1OC1C(O)C(OC(C)=O)C2(C)C12CO2 (stereo unspecified) | 3.46 nM
CC1=CC(C)(C)N=C(Nc2nc(C)c3cc(C)cc(C)c3n2)N1 | 2490 nM
